Data on 4 molecules can be found in patent US10392394B2, “Antimicrobial compounds and methods” (Board of Supervisors of Louisiana State University and …, priority 2013, dated 2019).

Data set [1] deals with Streptococcus mutans, Lactobacillus casei, Staphylococcus aureus and Pseudomonas aeruginosa. Put plainly: Antimicrobial activity, automated growth curve analysis. It is filed as cell-based. The note with it: 10^−4 M-10^−7 M in BMGS medium, triplicate, FIG. 2. On the procedure: Evaluation of antimicrobial activities of Formula 1 and synthesized monomers (Formulas 4-6, 10, and 11) was also performed. Streptococcus mutans was grown in brain heart infusion (BHI, Difco Laboratories, Detroit, Mich.), Lactobacillus casei was grown in MRS medium (Difco), Staphylococcus aureus and Pseudomonas aeruginosa were grown in Trypticase Soy Broth (TSB; Difco). They all were grown under static conditions in an 37° C. aerobic chamber with (for S. mutans only) or without 5% CO2. For antimicrobial assay, these bacteria were cultivated using a modified semi-defined biofilm medium (BM) with glucose (18 mM) and sucrose (2 mM) (BMGS) as the supplemental carbohydrate sources. Antimicrobial efficacy was measured using an automated growth curve analysis system. Overnight cultures were transferred to fresh medium and allowed to grow to mid-exponential phase, when they were properly diluted in BMGS and allowed to grow in the automated growth curve analysis system with and without inclusion of Formula 1 and synthesized monomers (Formulas 4-6, 10, and 11). All antimicrobial monomers were dissolved in DMSO at 10^−2 M concentration and serial dilutions were made to achieve the desired concentrations (10^−4 M-10^−7 M). All experiments were run in triplicate.

The test system of data set [2] is Human gingival fibroblasts. The experiment in a line: Biocompatibility (cytotoxicity) test, Calcein-AM cell survival. It is filed as cell-based. Particulars: 24 h exposure, FIG. 1. On the procedure: Synthesized monomers (Formulas 4-6, 10, and 11) and methacryloyloxyundecyldi-methylbenzylammonium bromide (Formula 1) were tested for biocompatibility (cytotoxicity). Human gingival fibroblasts were obtained from extracted molars from patients with healthy gingival following informed consent as prescribed in an approved IRB protocol. Gingival fibroblasts were maintained in MEM containing 10% fetal calf serum (FCS) and 200 units/mL penicillin and 200 μg/mL streptomycin. Cells were grown in 48-well plates for 24 h prior to exposure to the monomers. The growth media containing 0.1% dimethylsulfoxide (DMSO) were supplemented with 10^−4 M, 10^−5 M, 10^−6 M and 10^−7 M concentrations of five newly synthesized exemplary monomers (Formulas 4-6, 10, and 11) and added to the cells for 24 h. MEM served as a control for cytotoxicity. Cell survival was visualized using a fluorescent esterase substrate (Calcein-AM) and a inverted fluorescent microscope. Cell survival was quantified using a fluorescent multi-well plate reader.

Where [3] appears, read: concentrations of 10^−5 M and below.

For the molecule `C=C(C)C(=O)OCC(COC(=O)C(=C)C)OC(=O)CCCCCCCCCCCCCCC[N+](C)(C)Cc1ccccc1` [Formula 6, 2-(1,3-dimethacryloyloxy)propyl 16-N,N-dimethylbenzylammoniumhexadecanoate bromide], the antibacterial activity entry in data set [1] is recorded as “Highest levels of antibacterial activity”. In addition, the entries for the “cytotoxicity (cell survival)” value in data set [2] (10^−4 M concentration) and in data set [2] (setting [3]) were “significant cell death” and “good biocompatibility”, respectively.

In the case of `C=C(C)C(=O)OCC(COC(=O)C(=C)C)OC(=O)CCCCCCCCCCCCCCC[N+]12CCN(CC1)CC2.[Br-]` [Formula 5, 2-(1,3-dimethacryloyloxy)propyl 16-(1-(1-azonia-4-azabicylco[2.2.2]octyl))hexadecanoate bromide], the antibacterial activity entry in data set [1] is “Highest levels of antibacterial activity”. Also, the “cytotoxicity (cell survival)” value in data set [2] (10^−4 M concentration) is “significant cell death”; in data set [2] (setting [3]) it was “good biocompatibility”.

For `C=C(C)C(=O)OCCCCCCCCCCCCCCCC[N+]12CCN(CC1)CC2.[Br-]` [Formula 11, 16-(1-azonia-4-azabicylco[2.2.2]octyl)hexadecylmethacrylate bromide], the “cytotoxicity (cell survival)” value in data set [2] (10^−4 M concentration) is recorded as “little cytotoxicity”.

On to `C=C(C)C(=O)OCC(COC(=O)C(=C)C)OC(=O)CCCCCCCCC[N+]12CCN(CC1)CC2.[Br-]` [Formula 4, 2-(1,3-dimethacryloyloxy)propyl 10-(1-(1-azonia-4-azabicylco[2.2.2]octyl))decanoate bromide], for which the “cytotoxicity (cell survival)” value in data set [2] (10^−4 M concentration) was “little cytotoxicity”.
